Non-standard residues stand in square brackets, D forms with d. sY = N[C@@H](Cc1ccc(OS(=O)(=O)O)cc1)C(=O)O
Experiments:
Format in all cases: cell-based
[1] = system: human dermal fibroblasts (HDF); test: Wound healing (scratch) assay on human dermal fibroblasts; conditions: FIG. 17; 5 μg/ml and 0.05 μg/ml; 5 days of treatment; triplicate mean; vs 0.1% FBS basal, 10% FBS and TGF-β1 positive controls
Experimental: In order to test the effect of the sulfaction state of the peptides on their activity, it is herewith provided as reference example a wound healing assay conducted onto human dermal fibroblasts (HDF).
Human dermal fibroblasts were seeded in a 24-well plate and were grown to confluence. A 2 mm width scratch was done on the culture monolayer. Then the test products in culture medium were added and the cicatrisation process was followed by means of phase contrast microscopy. With this aim, photographs were taken at initial of the test (T=0 h) before the scratching and after the treatment (at 12 h and at 72 h). Cicatrisation process was evaluated by quantifying wound area reduction at each time.
Data at the end of the test (5 days of treatment) are depicted in FIG. 17, wherein the wound healing potential is depicted as the Healed Area (in μm^2) for assayed peptide.
The results derive from a triplicate test. Values of cicatrised area (or % of cicatrisation) are the mean values.

[2] = system: human hair follicle papilla cells (HFDPC); test: In vitro proliferation of hair follicle dermal papilla cells (BrdU incorporation); conditions: FIGS. 2 and 3; peptides with or without end-terminal modifications at 5.86, 2.93, 1.46 μg/ml; basal control = 100%
Experimental: In order to test the effects of the cell-free supernatants, as well as of the peptides of the invention, a proliferation assay was conducted onto human hair follicle papilla cells (CELL APPLICATIONS, INC; Normal human hair follicles from temporal scalp. Single donor: Ref. 602-05a. Lot. 2092.).
The culture media was a Papilla Cell Basal Medium supplemented with the Growth Supplements kit (Relative composition: Fetal bovine serum, growth factors and antibiotics. Application: 6% v/v).
HFDPC proliferation was assessed determining the proliferation index (%). Cell DNA replication was quantified by means of incorporated bromodeoxiuridine (BrdU) into DNA of treated cells. BrdU assay allows measuring cell proliferation based on cell capability of incorporating BrdU during S-phase of the cell cycle. Cells being divided incorporated BrdU that is further detected by means of antibodies and immunocytochemistry detection.
Cells were seeded at confluence in a 96-well plate. After stabilization and synchronization of cell cultures the tested products were added (at the final concentration indicated in Table 1 of Examples. After that, BrdU was added to cultures and HFDPC were incubated at 37° C. until complete BrdU incorporation. BrdU amounts were proportional to the number of cell divisions and thus to the growth of the treated culture.
Data are depicted in FIG. 1, FIG. 2 and FIG. 3, wherein it is shown the proliferation index (%) of HFDPC, calculated as the percentage of growing in relation to the basal control (non-treated HFDPC) which is accorded a 100% value of proliferation index.

[3] = system: human dermal fibroblasts (HDF); test: In vitro proliferation of human dermal fibroblasts (BrdU incorporation); conditions: FIGS. 6 and 7; 4Aa at 25, 12.5, 1.25 μg/ml, 5Aa at 1.25, 0.63, 0.25 μg/ml; basal control = 100%
Experimental: In order to further test the effects of the peptides of the invention in an additional setting, a proliferation assay was conducted onto human dermal fibroblasts (HDF).
Normal Human Dermal Fibroblasts (HDF) were obtained from foreskin samples, surpluses from surgery of young donors (0-3 years old) and stablished by using the standard method of explants growth and enzymic dissociation of proliferating cells. Cells were propagated and grown in Growth Medium (GM): Dulbecco's 1 g/L glucose medium, supplemented with 10% foetal bovine serum (FBS, PAA); 2 mM L-glutamine (Lonza); and antibiotics (100 μg/ml Penicillin and 100 U/ml of Streptomycin, Lonza). For routine subcultivation and propagation of the primary culture, cells were washed twice with PBS ([…] buffered saline, pH 7.4), harvested with trypsin—EDTA (Gibco) and counted in Neubauer chamber before its seeding in a new cell culture flask (Falcon, 75 cm2).
Test products were prepared at the defined final concentrations by its dilution in Maintenance Medium (Dulbecco's 1 g/L glucose medium, supplemented with 1% foetal bovine serum (FBS, PAA); 2 mM L-glutamine (Lonza); and antibiotics (100 μg/ml Penicillin and 100 U/ml of Streptomycin, Lonza), just before each application.
HFD proliferation was assessed determining the proliferation index (%). Cell DNA replication was quantified by means of incorporated bromodeoxiuridine (BrdU) into DNA of treated cells. […] Cells being divided incorporated BrdU that is further detected by means of antibodies and immunocytochemistry detection. […]
Data are depicted in FIG. 6 and FIG. 7, wherein it is shown the proliferation index (%) of HDF, calculated as the percentage of growing in relation to the basal control (non-treated HDF) which is accorded a 100% value of proliferation index. […]
Data are depicted in FIG. 16, wherein it is shown the proliferation index (%) of HDF, calculated as the percentage of growing in relation to the basal control (non-treated HDF) which is accorded a 100% value of proliferation index.

Row | Substance | wound healing potential, Healed Area [1] | proliferation index of HFDPC [2] | proliferation index of HDF [3]
1 | CH3—C(O)—YIXaa2T-NH2 (Ac-YI[sY]T-NH2; SMILES CC[C@H](C)[C@H](NC(=O)[C@H](Cc1ccc(O)cc1)NC(C)=O)C(=O)N[C@@H](Cc1ccc(OS(=O)(=O)O)cc1)C(=O)N[C@H](C(N)=O)[C@@H](C)O) [SEQ ID NO: 3, Xaa2 is a tyrosine residue with the side-chain hydroxyl group replaced by a radical —OSO3H] | have the same activity as the 4Aa non-sulfated peptide |  | 
2 | CH3—C(O)—YIYTQ-NH2 (Ac-YIYTQ-NH2) [SEQ ID NO: 7] |  | can promote cell proliferation | can promote cell proliferation of HDF
3 | CH3—C(O)—Xaa1IYT-NH2 (Ac-[sY]IYT-NH2; SMILES CC[C@H](C)[C@H](NC(=O)[C@H](Cc1ccc(OS(=O)(=O)O)cc1)NC(C)=O)C(=O)N[C@@H](Cc1ccc(O)cc1)C(=O)N[C@H](C(N)=O)[C@@H](C)O) [SEQ ID NO: 2, Xaa1 is a tyrosine residue with the side-chain hydroxyl group replaced by a radical —OSO3H] | have the same activity as the 4Aa non-sulfated peptide |  | 
